Assay results as given in the SangsterLogP compilation.

Test: method code SF-AS, from DOI: 10.1002/chin.197535153

logP | Compound
2.04 | Nc1ccc(OC(=O)c2ccc(N)cc2O)cc1
3.74 | Nc1ccc(C(=O)Oc2ccccc2Br)c(O)c1
3.6 | Nc1ccc(C(=O)Oc2ccc(Cl)cc2)c(O)c1
3.64 | Cc1cccc(OC(=O)c2ccc(N)cc2O)c1
4.28 | CC(C)c1ccccc1OC(=O)c1ccc(N)cc1O
4.27 | Nc1ccc(C(=O)Oc2ccc(Cl)cc2Cl)c(O)c1
2.08 | Nc1cccc(OC(=O)c2ccc(N)cc2O)c1
3.15 | Nc1ccc(C(=O)Oc2ccccc2)c(O)c1
3.88 | Cc1cccc(C)c1OC(=O)c1ccc(N)cc1O
3.27 | Nc1ccc(C(=O)Oc2ccc(F)cc2)c(O)c1
3.46 | Nc1ccc(C(=O)Oc2ccc(Br)cc2)c(O)c1
3.14 | Cc1ccccc1OC(=O)c1ccc(N)cc1O
3.38 | Cc1ccc(OC(=O)c2ccc(N)cc2O)cc1
4.12 | CC(C)c1ccc(OC(=O)c2ccc(N)cc2O)cc1
2.88 | COc1ccccc1OC(=O)c1ccc(N)cc1O
3.84 | Nc1ccc(C(=O)Oc2cccc(Br)c2)c(O)c1
3.29 | Nc1ccc(C(=O)Oc2ccccc2F)c(O)c1
3.07 | COc1ccc(OC(=O)c2ccc(N)cc2O)cc1
0.87 | Nc1ccc(C(=O)O)c(O)c1
4.21 | CC(C)(C)c1ccccc1OC(=O)c1ccc(N)cc1O
3.61 | Nc1ccc(C(=O)Oc2cccc(C(F)(F)F)c2)c(O)c1
3.42 | Nc1ccc(C(=O)Oc2cccc(F)c2)c(O)c1
3.9 | Nc1ccc(C(=O)Oc2cccc(Cl)c2)c(O)c1
3.72 | Nc1ccc(C(=O)Oc2ccccc2Cl)c(O)c1
3.25 | COc1cccc(OC(=O)c2ccc(N)cc2O)c1
